According to US12168037B2, “Intracellular IL-1 alpha peptide methods and compositions” (CEDARS-SINAI MEDICAL CENTER, priority 2018, dated 2024):
Ends that are not written are not given here. Peptide text beside a SMILES is read from it. * marks the point of attachment. Cbz = O=C(OCc1ccccc1)*

Tests used:
[1] = tested on: IL-1α protein; assay: IL-1α protein level in LPS-stimulated peritoneal macrophages (western blot); assay type: cell-based; conditions: peritoneal macrophages pretreated with peptide 1 hour, stimulated with LPS (3 hours), compared to LPS alone
Description: FIG. 2 depicts in accordance with various embodiments of the invention, that TAT-IL-1α peptide diminished IL-1α protein level. Peritoneal macrophages were pretreated with TAT-IL-1α or TAT-control peptides for 1 hour and stimulated with LPS (3 hours). The IL-1α protein level in cell lysate was detected by Western Blot. GAPDH was measured as a loading control.
The inventors investigated whether TAT-IL-1α peptide triggers IL-1α protein degradation by reducing its serine phosphorylation. Peritoneal macrophages were pretreated with TAT-IL-1α or TAT-Control peptides for 1 hour, stimulated with LPS, and the IL-1α protein level in whole cell lysate was detected by western blot (WB) (FIG. 2). The IL-1α protein level was decreased in TAT-IL-1α treated cells.

[2] = Membrane lipid strip binding (ECL detection); conditions: membrane lipid strips incubated with peptide (5 μg) or recombinant protein
Description: (§1) FIGS. 12A-12F depict in accordance with various embodiments of the invention, that the iIL-1α-peptide reduces cutaneous melanoma tumor. FIG. 12A-12B) Membrane lipid strips were incubated with (5 μg) SPDIA or Control peptide and detected by ECL. FIG. 12C) B16 or YUMM1.7 cells were treated with SPDIA or Control peptide (40 μg/ml) for 5 h, and pAkt1 and Akt1 in cell lysate were determined by WB. FIG. 12D) Experimental scheme. FIG. 12E) tumor pictures. FIG. 12F) Quantification of tumor volume, ** p<0.05. and Quantification of tumor mass, ** p<0.05. n=5.
FIGS. 14A-14C show intracellular IL-1α reduced Akt1 activation. FIG. 14A) pAkt1 and total Akt1 in cell lysate was determined by WB. FIG. 14B) Membrane lipid strip was incubated with recombinant human proIL-1α. IL-1α was detected by ECL system. FIG. 14C) PIP3 and Na, K-ATPase levels in plasma membrane fraction were determined by WB.
Intracellular IL-1α reduced Akt1 activation.
IL-1α pro-piece reduces melanoma tumor progression. To investigate the suppressive effect of intracellular proIL-1α in melanoma tumor progression, we designed a short Peptide Derived from IL-1A pro-piece (SPDIA) “GKVLKKRRLSL” (SEQ ID NO:1).

[3] = tested on: melanoma cells; assay: Cytotoxicity to melanoma cells; assay type: cell-based, mouse; conditions: 40 μg/ml, 5 h
Description: We label the SPDIA peptide with 680XL tag (680XL-SPDIA) using the VivoTag 680XL Protein Labeling Kit (PerkinElmer) for determine half-life and membrane penetrating efficiency of SPDIA peptide. B16 or YUMM1.7 melanoma cells are treated with 680XL-SPDIA peptide at various doses (10-100 μg/ml) and durations (1-10 h), and live images for intracellular expression and half-life of the SPDIA peptide are detected by fluorescence microscopy (Keyence, BZ-X). Further, the cellular cytotoxicity to the B16 and YUMM1.7 melanoma cells are measured by LDH cytotoxicity assay kit.
While we do […] expect to observe any cytotoxicity in vitro, at cells at lower concentrations of SPDIA peptide for longer durations (24, 48 h) and assess cell death.

[4] = tested on: S87A-IL-1α protein; assay: S87A-IL-1α protein stability in stably transfected 293 cells (western blot); assay type: cell-based, human; conditions: 293 cells stably expressing S87A-IL-1α, MG132 5 hours vs DMSO
Description: FIGS. 1A-1C depict in accordance with various embodiments of the invention, that serine phosphorylation is required for IL-1α protein stability. FIG. 1A) Relative expression of IL-1α mRNA by qPCR. FIG. 1B) Western Blot of IL-1α protein level in cell lysates. FIG. 1C) Western blot of IL-1α in cell lysates of cells treated with DMSO or MG132 for 5 hours.
Human IL-1α is phosphorylated at the serine 87 (S87) residue (mouse equivalent to S90) of the N-terminal pro-piece by protein kinase A (PKA). […] IL-1α phosphorylation is required for its membrane localization. A mutant IL-1α plasmid cDNA was made for studying the role of IL-1α subcellular localization: the Serine at 87 was exchanged with Alanine (S87A) using the QuikChange Site-Directed Mutagenesis kit, Cat #200518 and human pCMV-IL-1α-flag plasmid DNA (Sino Biological Inc. Cat #HG10128-M-F). Primers were designed by the QuikChange Primer Design software program.
Wild-type (WT)-IL-1α or mutant S87A-IL-1α plasmid was transfected into 293 cells and stable expressing cells lines were made. These cells express similar levels of IL-1α mRNA (FIG. 1A). IL-1α protein was detected only in WT-IL-1α transfected cells but not mutant S87A-IL-1α transfected cells (FIG. 1B). […] Based on this finding, a pseudosubstrate peptide was made to inhibit IL-1α phosphorylation, which may provide a more convenient way to control IL-1α during inflammation. […]

[5] = biological target: T1, Akt1 (Mus musculus, UniProt P31750); assay: Akt1 activation (pAkt1) in melanoma cells by western blot; assay type: cell-based; conditions: B16 or Yumm 1.7 murine melanoma cells, TAT-IL-1α 40 μg/ml, 5 hours, vs TAT-Control peptide
T1 construct: endogenous in cells
Description: FIG. 3 depicts in accordance with various embodiments of the invention, that TAT-IL-1α peptide diminished Akt1 activation and increased HK-2 mitochondrial dissociation. B16 or Yumm 1.7 murine melanoma cells were treated with TAT-IL-1α (40 μg/ml) or TAT-Control peptide for 5 hours. HK-2 level and pAkt1 activation in the cytosolic and mitochondrial fraction were detected by Western Blot. GAPDH was measured as a loading control.
FIGS. 10A-10C depict in accordance with various embodiments of the invention, the iIL-1α-peptide reduces Akt1 activation and glycolysis in melanoma cells. […] FIG. 10B) HK-2 and pAkt1 in cytosolic and mitochondrial fraction were determined by WB. […] FIG. 10C) Extracellular acidification rate (ECAR) was measured by Seahorse and compared over time in PBS and iIL-1α-peptide treated mice.
as §1, with “FIG. 12D) Experimental scheme. FIG. 12E) tumor pictures.” left out, “n=5. […]” for “n=5.”

[6] = tested on: hexokinase 2 (HK-2); assay: HK-2 mitochondrial/cytosolic fraction level in melanoma cells by western blot; assay type: cell-based, mouse; conditions: B16 or Yumm 1.7 cells, 40 μg/ml, 5 hours, vs TAT-Control
Description: B16 cells isolated from tumors from WT mice were treated with iIL-1α-mimic peptide (iIL-1α-peptide) (40 μg/ml) or PBS for 5 hours. […] FIG. 10B) HK-2 and pAkt1 in cytosolic and mitochondrial fraction were determined by WB. COX-IV and GAPDH was used as a loading controls.
B16 cells were isolated from WT mice and cultured in-vitro. The cells were treated with the iIL-1α-mimic peptide (iIL-1α peptide) or PBS for 5 hours (FIG. 10).
B16 or Yumm1.7 melanoma cells were treated with PBS or iIL-1α-peptide (40 μg/ml) for 5 hours, and HK-2 levels and Akt1 activation in the mitochondrial and cytosolic fraction were determined by western blot.

[7] = tested on: B16 melanoma cells; assay: B16 melanoma lung metastasis/colonization model (tail vein injection); assay type: in vivo, mouse; conditions: vs TAT-Control peptide; for melanoma (lung) metastasis: B16 cells i.v. in female WT mice, peptide i.v. five days later, lungs harvested five days post treatment
Description: FIGS. 4A-4C depict in accordance with various embodiments of the invention, that TAT-IL-1α peptide reduced lung metastasis. FIG. 4A) Experimental Schematic (top), metastatic lungs (bottom images). FIG. 4B) Quantification of tumor number in TAT-Control and TAT-IL-1α. FIG. 4C) Melanin content of the metastatic lungs in TAT-Control and TAT-IL-1α.
FIGS. 11A-11C depict in accordance with various embodiments of the invention, that the iIL-1α-peptide reduces melanoma colonization in the lung. FIG. 11A) Experimental scheme and representative lung pictures. FIG. 11B) Quantification of tumor number, **p<0.01. FIG. 11C) Quantification of melanin content, *p<0.05. n=4.
The B16 (also referred herein as “B16F10”) mouse melanoma metastasis model is widely accepted, as B16 cells injected via tail vein reliably colonize the lungs, with easily identifiable tumors after 7-14 days. While the use of a genetic melanoma model may be ideal, it requires the use of immunodeficient mice or the complicated and expensive humanized mice. While the B16 model may have its known caveats, it has repeatedly given very useful novel mechanistic clues that can be further tested in more relevant models, such as genetically engineered mice. In addition to the B16 model, a mouse melanoma cell line with human genetic drivers that are more relevant to human melanoma formation and progression were also used. To this effect, a non-immunogenic cell line (YUMM1.7) was used. In the YUMM1.7 cells, nearly 50% of human melanomas harbor a gain of function in the Braf^V600E Cdkn2a−/− Pten−/− mutations and they form reliable lung tumors following tail vein injection (5×10^5, in 3 weeks). Other common mutations in human melanoma include CDKN2A (familial melanoma gene), inactivation of tumor suppressors including INK4A, ARF, p53, and PTEN, as well as mutations in proto-oncogenes such as H-RAS, N-RAS, and K-RAS.
The peptides were subsequently tested in vivo. B16 melanoma cells were intravenously (i.v.) injected in the tail vein of female WT mice. Five days later, TAT-IL-1α or TAT-Control peptide was injected in the tail vein (i.v.). Five days post treatment, lungs were harvested and examined for metastasis. […] The tumor number and melanin content were diminished in the TAT-IL-1α treatment group compared to TAT-Control peptide treatment. (FIGS. 4B and 4C).
The mouse models used were C57Bl/6 WT or Il1α−/− mice injected with B16 cells (2×10^5 tail vein), (3×10^5 subcutaneous) or C57Bl/6 WT mice injected with YUMM1.7 cells (5×10^5 subcutaneous). The IL-1α, pAkt1 and HK-2 levels were determined by WB. The glycolytic rate in B16 cells was measured by Seahorse.
The iIL-1α-peptide reduces tumor burden in vivo. The protective role of the iIL-1α-peptide against melanoma colonization was investigated. […] The mice were analyzed 5 days later.

[8] = B16 i.v. model, peptide i.v. day 5

T1 sequence (P31750 whole entry): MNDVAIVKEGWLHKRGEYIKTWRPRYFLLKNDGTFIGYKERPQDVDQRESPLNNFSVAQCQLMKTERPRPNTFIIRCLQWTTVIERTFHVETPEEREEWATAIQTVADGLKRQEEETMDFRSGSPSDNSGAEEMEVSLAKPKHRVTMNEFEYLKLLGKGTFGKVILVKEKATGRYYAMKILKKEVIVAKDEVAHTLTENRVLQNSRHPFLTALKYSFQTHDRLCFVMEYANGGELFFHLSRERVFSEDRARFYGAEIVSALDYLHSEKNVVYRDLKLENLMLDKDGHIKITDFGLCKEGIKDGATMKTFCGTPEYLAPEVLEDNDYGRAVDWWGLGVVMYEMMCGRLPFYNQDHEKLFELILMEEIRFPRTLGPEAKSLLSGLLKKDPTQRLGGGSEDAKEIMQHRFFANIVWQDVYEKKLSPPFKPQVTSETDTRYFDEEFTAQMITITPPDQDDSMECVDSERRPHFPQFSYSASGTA

YGRKKRRQRRRLAKARLAL [TAT-Control peptide, control peptide for TAT-IL-1α peptide, reference compound]
IL-1α protein level in whole cell lysate [1]: slightly decreased

GKVLKKAALSL [control peptide, SPDIA with arginine residues replaced by alanine, reference compound]
interaction with phosphoinositides on membrane lipid strip [2]: fails to bind with PIP and PIP2

GKVLKKRRLSL [SPDIA, GKVLKKRRLSL]
cytotoxicity [3]: without inducing cytotoxicity

CC(C)C[C@@H](C=O)NC(=O)[C@H](CC(C)C)NC(=O)[C@H](CC(C)C)NC(=O)OCc1ccccc1 [MG132] (Cbz-Leu-Leu-Leu-aldehyde)
S87A-IL-1α protein in cell lysate [4]: clearly detected

YGRKKRRQRRRLKKRRLSL [TAT-IL-1α peptide]
IL-1α protein level in whole cell lysate [1]: diminished
IL-1α protein level in whole cell lysate ([1]; listed as TAT-IL-1α): decreased
Akt1 activation (pAkt1) [5]: diminished
Akt1 activation (pAkt1) ([5]; listed as TAT-IL-1α): significantly inhibited
HK-2 mitochondrial dissociation [6]: increased
HK-2 mitochondrial translocation [6]: diminished
melanoma (lung) metastasis [7]: reduced
melanoma (lung) metastasis ([7]; listed as TAT-IL-1α): significantly reduced
melanin content of the metastatic lungs [7, 8]: diminished
tumor number (metastatic lungs) [7, 8]: diminished

B1: proIL-1α: recombinant human proIL-1α incubated with membrane lipid strip (protein, UniProt P01583 1-271, looked up)
pro-form: MAKVPDMFEDLKNCYSENEEDSSSIDHLSLNQKSFYHVSYGPLHEGCMDQSVSLSISETSKTSKLTFKESMVVVATNGKVLKKRRLSLSQSITDDDLEAIANDSEEEIIKPRSAPFSFLSNVKYNFMRIIKYEFILNDALNQSIIRANDQYLTAAALHNLDEAVKFDMGAYKSSKDDAKITVILRISKTQLYVTAQDEDQPVLLKEMPEIPKTITGSETNLLFFWETHGTKNYFTSVAHPNLFIATKQDYWVCLAGGPPSITDFQILENQA
modifications: pro-form
notes: recombinant human proIL-1α incubated with membrane lipid strip
interaction with phosphoinositides on membrane lipid strip [2]: interaction with phosphoinositides such as PI(4)P (PIP), PI(4,5)P2 (PIP2) and PI(3,4,5)P3 (PIP3)
